The values below are quoted from earlier work in patent publication US20100080768A1, “Compositions and Methods for the Treatment of Inflammatory Dermatosis and Other Pathological Conditions of the Skin” (priority 2008, published 2010).

Experiment in data set [1]: not given
The source holds these as a separate data set.

Regarding `NC(=O)c1cccnc1` [Nicotinamide, nicotinamide], the pka value is listed as 0.5. In addition, the solubility in water result in data set [1] is recorded as “free soluble”.
